Data from article PMC11070402, “New antiproliferative 3-substituted oxindoles inhibiting EGFR/VEGFR-2 and tubulin polymerization” (Molecular Diversity, 2023).
Like-named read-outs stand apart in the source and are kept apart here.

Legend:
[1] = system: UO-31; test: NCI one-dose assay, UO-31; assay type: cell-based; conditions: Homo sapiens; UO-31 (Renal Cancer), 10 uM single dose; read-out: Growth inhibition %
Procedure: (§1) All novel scaffolds 6a–j were carefully selected by the National Cancer Institute (NCI), Bethesda, USA, to elucidate their cytotoxic activity versus 60 human cancer cell lines at 10 µM as a single-dose concentration after a 48 h incubation period.
(§2) National Cancer Institution selected all the synthesized 6a–j (NCI), Bethesda, USA, for in vitro one-dose antitumor assay. The methodology protocol for the NCI anticancer screening was reported in detail elsewhere (http://www.dtp.nci.nih.gov). The anticancer assay was performed in full NCI 60 cell lines extracted from nine tumor cell lines, including leukemia, melanoma, lung, colon, CNS, ovarian, renal, prostate, and breast cancer cell lines.

[2] = system: 60 human cancer cell lines; test: NCI one-dose assay against sixty NCI cancer cell lines; assay type: cell-based
Procedure: as §1, §2

[3] = system: NCI/ADR-RES (ovarian cancer cell line); test: NCI one-dose assay, NCI/ADR-RES; assay type: cell-based; conditions: Homo sapiens; NCI/ADR-RES (Ovarian Cancer), 10 uM single dose; read-out: Growth inhibition %
Procedure: as §1, §2

[4] = system: MCF-7; test: NCI one-dose assay, MCF-7; assay type: cell-based, human; conditions: Homo sapiens, MCF7, MCF7 (Breast Cancer), 10 uM single dose; read-out: Growth inhibition %
Procedure: as §1, §2

[5] = system: K-562; test: NCI one-dose assay, K-562; assay type: cell-based; conditions: Homo sapiens, K562; K-562 (Leukemia), 10 uM single dose; read-out: Growth inhibition %
Procedure: as §1, §2

[6] = system: SNB-75 cells (CNS cancer cell line); test: NCI one-dose assay, SNB-75; assay type: cell-based; conditions: Homo sapiens
Procedure: as §1, §2

[7] = system: MOLT-4; test: NCI one-dose assay, MOLT-4; assay type: cell-based; conditions: Homo sapiens; MOLT-4 (Leukemia), 10 uM single dose; read-out: Growth inhibition %
Procedure: as §1, §2

[8] = system: T-47D; test: NCI one-dose assay, T-47D; assay type: cell-based; conditions: Homo sapiens, T47D; T-47D (Breast Cancer), 10 uM single dose; read-out: Growth inhibition %
Procedure: as §1, §2

[9] = system: LOX IMVI; test: NCI one-dose assay, LOX IMVI; assay type: cell-based; conditions: Homo sapiens; LOX IMVI (Melanoma), 10 uM single dose; read-out: Growth inhibition %
Procedure: as §1, §2

[10] = system: SR; test: NCI one-dose assay, SR; assay type: cell-based; conditions: Homo sapiens; SR (Leukemia), 10 uM single dose; read-out: Growth inhibition %
Procedure: as §1, §2

[11] = system: HOP-92 (non-small cell lung cancer cell line); test: NCI one-dose assay, HOP-92; assay type: cell-based; conditions: Homo sapiens
Procedure: as §1, §2

[12] = system: NCI-H23; test: NCI one-dose assay, NCI-H23; assay type: cell-based; conditions: Homo sapiens; NCI-H23 (Non-Small Cell Lung Cancer), 10 uM single dose; read-out: Growth inhibition %
Procedure: as §1, §2

[13] = CAKI-1 (Renal Cancer), 10 uM single dose, read-out: Growth inhibition %
[14] = NCI-H226 (Non-Small Cell Lung Cancer), 10 uM single dose, read-out: Growth inhibition %
[15] = PC-3 (Prostate Cancer), 10 uM single dose, read-out: Growth inhibition %
[16] = UACC-62 (Melanoma), 10 uM single dose, read-out: Growth inhibition %
[17] = SNB-75 (CNS Cancer), 10 uM single dose, read-out: Growth inhibition %
[18] = HCT-15 (Colon Cancer), 10 uM single dose, read-out: Growth inhibition %
[19] = HOP-62 (Non-Small Cell Lung Cancer), 10 uM single dose, read-out: Growth inhibition %
[20] = HS 578T (Breast Cancer), 10 uM single dose, read-out: Growth inhibition %
[21] = IGROV-1, IGROV1 (Ovarian Cancer), 10 uM single dose, read-out: Growth inhibition %
[22] = MDA-MB-231, read-out: Growth inhibition %
[23] = OVCAR-3 (Ovarian Cancer), 10 uM single dose, read-out: Growth inhibition %
[24] = SF-268 (CNS Cancer), 10 uM single dose, read-out: Growth inhibition %
[25] = ACHN (Renal Cancer), 10 uM single dose, read-out: Growth inhibition %
[26] = HCT-116 (Colon Cancer), 10 uM single dose, read-out: Growth inhibition %
[27] = M14 (Melanoma), 10 uM single dose, read-out: Growth inhibition %
[28] = NCI-H322M (Non-Small Cell Lung Cancer), 10 uM single dose, read-out: Growth inhibition %
[29] = NCI-H522 (Non-Small Cell Lung Cancer), 10 uM single dose, read-out: Growth inhibition %
[30] = SF-539 (CNS Cancer), 10 uM single dose, read-out: Growth inhibition %
[31] = BT-549 (Breast Cancer), 10 uM single dose, read-out: Growth inhibition %
[32] = CCRF-CEM (Leukemia), 10 uM single dose, read-out: Growth inhibition %
[33] = RPMI-8226 (Leukemia), 10 uM single dose, read-out: Growth inhibition %
[34] = U-251, U251 (CNS Cancer), 10 uM single dose, read-out: Growth inhibition %
[35] = OVCAR-8 (Ovarian Cancer), 10 uM single dose, read-out: Growth inhibition %

SMILES	inhibition at 10 µM [1] [%]	inhibition at 10 µM [2, 13] [%]	inhibition at 10 µM [2, 14] [%]	inhibition at 10 µM [2, 15] [%]	inhibition at 10 µM [2, 16] [%]	inhibition at 10 µM [4] [%]	inhibition at 10 µM [5] [%]	inhibition at 10 µM [6, 17] [%]	melting point [°C]	inhibition at 10 µM [2, 18] [%]	inhibition at 10 µM [2, 19] [%]	inhibition at 10 µM [2, 20] [%]	inhibition at 10 µM [2, 21] [%]	inhibition at 10 µM [2, 23] [%]	inhibition at 10 µM [2, 24] [%]	inhibition at 10 µM [7] [%]	inhibition at 10 µM [8] [%]	inhibition at 10 µM [2, 25] [%]	inhibition at 10 µM [2, 26] [%]	inhibition at 10 µM [9] [%]	also measured
O=C1Nc2ccccc2C1=Cc1ccc(OCC(=O)c2ccccc2)cc1 [Compound 6a, 3-{4-[2-Oxo-2-phenylethoxy]benzylidene}indolin-2-one]	30.5	13.1	11	17.1	12.9	11.3	11.1	26.2	219 to 221	–	–	–	–	–	–	–	–	–	–	–	inhibition at 10 µM [3]: 1.84%
O=C1Nc2ccc(Cl)cc2C1=Cc1ccc(OCC(=O)c2ccccc2)cc1 [Compound 6b, 5-Chloro-3-{4-[2-oxo-2 phenylethoxy]benzylidene}indolin-2-one]	39.5	31.9	13.3	24.9	25.1	38	23.5	31.1	189 to 191	11.9	14.6	13.7	20.3	12.7	11.3	13.4	–	–	–	–	inhibition at 10 µM [2, 22]: 15.5%; inhibition at 10 µM ([2]; SK-OV-3 (Ovarian Cancer), 10 uM single dose, read-out: Growth inhibition %): 11.9%
O=C1Nc2cc(Cl)ccc2C1=Cc1ccc(OCC(=O)c2ccccc2)cc1 [Compound 6c, 6-Chloro-3-{4-[2-oxo-2-phenylethoxy]benzylidene}indolin-2-one]	35	26.4	13.2	28.5	27.9	38.2	18	–	199 to 201	23.5	–	12.6	20.1	10.8	11.4	–	16.3	15.9	12.2	16.5	inhibition at 10 µM [2, 27]: 11.1%; inhibition at 10 µM [2, 28]: 11.6%; inhibition at 10 µM [2, 29]: 11.7%; inhibition at 10 µM ([2]; RXF 393 (Renal Cancer), 10 uM single dose, read-out: Growth inhibition %): 16.4%; inhibition at 10 µM [2, 30]: 13.8%; inhibition at 10 µM ([6]; SNB-75, 10 µM single dose, 48 h incubation, read-out: cell growth inhibition % (GI %)): 41.2%
O=C1Nc2ccc(F)cc2/C1=C\c1ccc(OCC(=O)c2ccccc2)cc1 [Compound 6d, (E/Z)-5-Fluoro-3-{4-[2-oxo-2-phenylethoxy]benzylidene}indolin-2-one]	32.3	28.3	10.3	23	30.6	23.1	33.6	33.7	223 to 226	11.7	10.5	14.8	–	–	14.6	32.2	14.3	–	14.3	17.7	inhibition at 10 µM [2, 31]: 10.9%; inhibition at 10 µM [2, 32]: 15.6%; inhibition at 10 µM ([2]; EKVX (Non-Small Cell Lung Cancer), 10 uM single dose, read-out: Growth inhibition %): 18.9%; inhibition at 10 µM ([2]; HL-60(TB) (Leukemia), 10 uM single dose, read-out: Growth inhibition %): 16.9%; inhibition at 10 µM ([2]; KM12 (Colon Cancer), 10 uM single dose, read-out: Growth inhibition %): 15.9%; inhibition at 10 µM [2, 27]: 12.1%; inhibition at 10 µM [2, 28]: 11.2%; inhibition at 10 µM [2, 29]: 12.4%; inhibition at 10 µM [2, 33]: 22.1%; inhibition at 10 µM [2, 30]: 14.3%; inhibition at 10 µM ([2]; SNB-19 (CNS Cancer), 10 uM single dose, read-out: Growth inhibition %): 14.9%; inhibition at 10 µM [2, 34]: 16.8%; inhibition at 10 µM [10]: 25.2%
COc1ccc2c(c1)C(=Cc1ccc(OCC(=O)c3ccccc3)cc1)C(=O)N2 [Compound 6e, 5-Methoxy-3-{4-[2-oxo-2-phenylethoxy]benzylidene}indolin-2-one]	29.6	19.8	11.6	14.8	24.7	20.2	19.5	–	196 to 198	10.3	–	–	–	–	–	11.6	–	11.2	12	19.5	inhibition at 10 µM [2, 28]: 12.4%
COc1ccc(C(=O)COc2ccc(C=C3C(=O)Nc4ccc(Cl)cc43)cc2)cc1 [Compound 6i, 5-Chloro-3-{4-[2-(4-methoxyphenyl)-2-oxoethoxy]benzylidene}indolin-2-one]	38.1	22.7	17.4	29.6	20.1	22.1	25	37.6	183 to 185	–	–	–	–	10.8	–	21.8	23.9	–	10.4	12.3	inhibition at 10 µM ([11]; HOP-92, 10 µM single dose, 48 h incubation, read-out: cell growth inhibition % (GI %)): 62.1%; inhibition at 10 µM [2, 31]: 11.7%; inhibition at 10 µM [2, 32]: 12.5%; inhibition at 10 µM [2, 29]: 16.1%; inhibition at 10 µM [2, 35]: 10.6%; inhibition at 10 µM [2, 33]: 19.9%; inhibition at 10 µM ([2]; SK-MEL-2 (Melanoma), 10 uM single dose, read-out: Growth inhibition %): 22.2%; inhibition at 10 µM [3]: 13.1%; inhibition at 10 µM [10]: 21.2%
COc1ccc(C(=O)COc2ccc(/C=C3/C(=O)Nc4cc(Cl)ccc43)cc2)cc1 [Compound 6j, (E/Z)-6-Chloro-3-{4-[2-(4-methoxyphenyl)-2-oxoethoxy]benzylidene}indolin-2-one]	35.9	23.2	13.2	33.5	23.8	34.4	22.8	36.7	165 to 167	–	16.7	–	21.5	18.1	–	30.3	15.6	10.1	12.2	–	inhibition at 10 µM [12]: 10.5%; inhibition at 10 µM ([11]; HOP-92 (Non-Small Cell Lung Cancer), 10 uM single dose, read-out: Growth inhibition %): 34.8%; inhibition at 10 µM [2, 27]: 10.3%; inhibition at 10 µM [2, 22]: 12.2%; inhibition at 10 µM ([2]; OVCAR-4 (Ovarian Cancer), 10 uM single dose, read-out: Growth inhibition %): 11%; inhibition at 10 µM [2, 35]: 13.4%; inhibition at 10 µM [2, 34]: 12.9%; inhibition at 10 µM [10]: 16.7%
